Measurements taken from US20240190849A1, “AMINOPYRIMIDINE COMPOUNDS AND METHODS OF THEIR USE” (TYRA BIOSCIENCES, INC., priority 2021, published 2024).

Experiments:
FGFR1 = target: T1, FGFR1 (Homo sapiens, UniProt P11362); test: Kinase binding assay (kinase-tagged T7 phage, affinity beads, qPCR readout), FGFR1; settings: FGFR binding data
T1 construct: made in house; host or cells: E. coli derived from BL21, infected with T7 phage
Summary of the method: (§1)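 Kd values derive from Hill-equation fits (slope −1, Levenberg-Marquardt) of qPCR-quantified kinase recovered from ligand-coated beads. Compounds ran as 11-point 3-fold series, final DMSO 0.9%, with 1 hour room-temperature binding.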

[1] = test system: SNU-16 (Gastric Carcinoma), FGFR2 amplification; test: Cancer cell viability assay (Cell Titer-Glo), SNU-16; type: cell-based; settings: Homo sapiens, SNU-16 cells, 72 hours, read-out: SNU16 FGFR2 (IC50 nM)
Text: (§2) RT112/84, UM-UC-14, SNU-16 and KG-1 Cancer Cell Line Cell Viability Assays
(§3) To detect the change of intracellular ATP by Cell Titer-Glo@ and to evaluate the inhibitory effect of the compounds on cancer cell lines by determining the in vitro IC50 value of the compounds.
(§4) Cell Titer-Glo@ 2.0 Luminescent cell viability assay reagent was purchased from Promega (Madison, WI). RT112/84, SNU-16, and KG-1 cell lines were purchased from American Type Culture Collection (Manassas, VA). UM-UC-14 cell line was purchased from Sigma (St. Louis, MO). RT112/84, UM-UC-14, SNU-16, and KG-1 cells were cultured in RPMI1640 media supplemented with 10% fetal bovine serum. Cultures were maintained at 37° C. in a humidified atmosphere of 5% CO2 and 95% air.
(§5) Cell Viability Assay Procedure: Cells were plated in 96-well clear bottom/white plates (Corning #3903) at 10,000 cells/well in 100 μl of media, incubated overnight. The next day, test compound DMSO stock solutions were made at 10 mM and 2 μM final concentration. Compounds were then added to cells in a 9-dose, […] dilution series starting at 30 μM with an HP 300e Digital Dispenser (each dose was applied in triplicate). DMSO was backfilled to each well up to 301 nL total volume of test compound+DMSO, and a total of 301 nL DMSO was added to a control/no test compound well in triplicate. The cells in cell culture plates were incubated with the compounds at 37° C. and 5% CO2 for 72 hours. Then 50 μl of Cell Titer Glo 2.0 reagent was added to each well of the cell culture plates. The contents were covered from light and mixed on an orbital shaker at room temperature for 10 min. Luminescence was recorded by a Synergy H1 Microplate Reader (Biotek, Winooski, VT). Cells were assessed as a percentage of DMSO only treated control cells. Curves were plotted and IC50 values were calculated using the GraphPad Prism 8 program based on a sigmoidal dose-response equation (4 parameter).

FGFR3 (V555M) = target: T2, FGFR3 (V555M) (Homo sapiens, UniProt P22607, V555M); test: Kinase binding assay (kinase-tagged T7 phage, affinity beads, qPCR readout), FGFR3 (V555M); settings: FGFR binding data
T2 construct: made in house; host or cells: E. coli derived from BL21, infected with T7 phage
T2 sequence (P22607 23-806 V555M): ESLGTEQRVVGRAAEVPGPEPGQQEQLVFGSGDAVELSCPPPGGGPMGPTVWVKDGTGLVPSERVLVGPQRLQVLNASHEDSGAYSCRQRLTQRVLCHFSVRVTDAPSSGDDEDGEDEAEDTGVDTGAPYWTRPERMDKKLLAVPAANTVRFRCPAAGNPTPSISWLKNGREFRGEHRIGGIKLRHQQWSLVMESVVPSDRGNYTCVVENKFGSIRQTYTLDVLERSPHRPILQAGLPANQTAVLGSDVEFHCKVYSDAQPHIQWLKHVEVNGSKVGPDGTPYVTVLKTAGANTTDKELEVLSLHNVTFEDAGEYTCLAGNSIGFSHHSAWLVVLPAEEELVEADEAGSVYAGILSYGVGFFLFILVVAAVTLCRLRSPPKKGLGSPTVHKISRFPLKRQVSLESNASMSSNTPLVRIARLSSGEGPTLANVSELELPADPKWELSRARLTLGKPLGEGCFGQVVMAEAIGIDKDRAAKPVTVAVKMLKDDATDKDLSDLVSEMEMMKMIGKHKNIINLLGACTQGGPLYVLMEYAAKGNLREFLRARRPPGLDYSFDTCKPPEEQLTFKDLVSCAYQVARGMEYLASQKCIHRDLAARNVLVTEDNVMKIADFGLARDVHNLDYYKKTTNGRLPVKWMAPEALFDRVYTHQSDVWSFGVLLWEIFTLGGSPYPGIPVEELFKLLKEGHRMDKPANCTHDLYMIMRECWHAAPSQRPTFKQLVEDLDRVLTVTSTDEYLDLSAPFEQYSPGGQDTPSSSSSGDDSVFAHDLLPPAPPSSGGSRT
Summary of the method: as §1

FGFR3 = target: T3, FGFR3 (Homo sapiens, UniProt P22607); test: Kinase binding assay (kinase-tagged T7 phage, affinity beads, qPCR readout), FGFR3; settings: FGFR binding data
T3 construct: made in house; host or cells: E. coli derived from BL21, infected with T7 phage
T3 sequence (P22607 23-806): as the sequence (P22607 23-806 V555M) above, with M533V counted along it
Summary of the method: as §1

FGFR2 = target: T4, FGFR2 (Homo sapiens, UniProt P21802); test: Kinase binding assay (kinase-tagged T7 phage, affinity beads, qPCR readout), FGFR2; settings: FGFR binding data
T4 construct: made in house; host or cells: E. coli derived from BL21, infected with T7 phage
T4 sequence (P21802 22-821): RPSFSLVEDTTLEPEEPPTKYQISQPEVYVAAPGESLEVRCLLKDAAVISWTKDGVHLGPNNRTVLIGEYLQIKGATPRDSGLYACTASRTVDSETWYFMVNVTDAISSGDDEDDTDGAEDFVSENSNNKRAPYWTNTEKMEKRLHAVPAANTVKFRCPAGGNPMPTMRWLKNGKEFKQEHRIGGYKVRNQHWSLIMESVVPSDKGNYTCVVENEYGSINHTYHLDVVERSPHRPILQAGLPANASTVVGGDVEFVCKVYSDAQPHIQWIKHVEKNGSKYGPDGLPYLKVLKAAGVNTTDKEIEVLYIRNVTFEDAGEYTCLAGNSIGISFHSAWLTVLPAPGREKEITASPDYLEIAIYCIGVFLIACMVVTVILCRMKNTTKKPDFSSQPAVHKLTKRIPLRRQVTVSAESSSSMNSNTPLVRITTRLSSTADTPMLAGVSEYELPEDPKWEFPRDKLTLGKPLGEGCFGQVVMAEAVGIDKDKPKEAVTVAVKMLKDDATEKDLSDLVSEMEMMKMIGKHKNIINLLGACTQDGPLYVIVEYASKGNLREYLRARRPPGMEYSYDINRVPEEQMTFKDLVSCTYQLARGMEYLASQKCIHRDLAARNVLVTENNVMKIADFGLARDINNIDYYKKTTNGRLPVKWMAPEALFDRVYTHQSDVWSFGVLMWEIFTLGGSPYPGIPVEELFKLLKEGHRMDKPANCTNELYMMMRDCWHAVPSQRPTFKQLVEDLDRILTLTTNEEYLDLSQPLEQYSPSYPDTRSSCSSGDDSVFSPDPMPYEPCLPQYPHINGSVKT
Summary of the method: as §1

[2] = test system: UM-UC-14 (Bladder Cancer), FGFR3(S249C); test: Cancer cell viability assay (Cell Titer-Glo), UM-UC-14; type: cell-based; settings: UMUC14, UM-UC-14 cells, 72 hours
Text: as §2, §3, §4, §5

T1 sequence (P11362 22-822): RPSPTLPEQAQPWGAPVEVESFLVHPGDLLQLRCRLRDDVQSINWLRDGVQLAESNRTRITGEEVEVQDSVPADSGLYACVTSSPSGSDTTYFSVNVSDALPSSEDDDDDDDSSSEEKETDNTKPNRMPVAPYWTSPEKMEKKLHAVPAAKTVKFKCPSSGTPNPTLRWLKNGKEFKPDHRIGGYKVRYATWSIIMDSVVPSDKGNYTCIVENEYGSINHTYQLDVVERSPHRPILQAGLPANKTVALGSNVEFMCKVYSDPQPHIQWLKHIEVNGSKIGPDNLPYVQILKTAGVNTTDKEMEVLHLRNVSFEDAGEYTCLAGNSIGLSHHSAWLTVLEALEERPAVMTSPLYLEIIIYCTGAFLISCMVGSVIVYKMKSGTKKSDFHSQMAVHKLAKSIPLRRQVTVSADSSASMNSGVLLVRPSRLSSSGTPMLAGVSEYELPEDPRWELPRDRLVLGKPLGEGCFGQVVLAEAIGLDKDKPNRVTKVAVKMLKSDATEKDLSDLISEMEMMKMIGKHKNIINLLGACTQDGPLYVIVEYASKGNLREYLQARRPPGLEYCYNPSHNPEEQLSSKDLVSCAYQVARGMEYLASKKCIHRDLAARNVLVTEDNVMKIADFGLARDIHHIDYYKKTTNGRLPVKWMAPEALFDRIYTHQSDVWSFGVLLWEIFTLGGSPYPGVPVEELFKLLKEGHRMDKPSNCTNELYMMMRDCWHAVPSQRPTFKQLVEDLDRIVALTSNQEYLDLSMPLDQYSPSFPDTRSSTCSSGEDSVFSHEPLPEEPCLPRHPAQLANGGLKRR

| SMILES | Kd (FGFR1) [nM] | IC50 [1] [nM] | Kd (FGFR3 (V555M)) [nM] | Kd (FGFR3) [nM] | Kd (FGFR2) [nM] | IC50 [2] [nM] |
| --- | --- | --- | --- | --- | --- | --- |
| C=CC(=O)Nc1ccc2c(c1)c(C)cn2-c1nc(Nc2cn(CCO)nc2C)ncc1F [Example 176, N-[1-[5-fluoro-2-[[1-(2-hydroxyethyl)-3-methyl-pyrazol-4-yl]amino]pyrimidin-4-yl]-3-methyl-indol-5-yl]prop-2-enamide] | 0.1 to 100 | 0.1 to 100 | 0.1 to 100 | 0.1 to 100 | 0.1 to 100 |  |
| C=CC(=O)Nc1ccc2c(-c3ccnc(Nc4cnn(C5CC5)c4)n3)cn(C)c2c1 [Example 178, N-[3-[2-[(1-cyclopropylpyrazol-4-yl)amino]pyrimidin-4-yl]-1-methyl-indol-6-yl]prop-2-enamide] | 0.1 to 100 | 0.1 to 100 | 0.1 to 100 | 0.1 to 100 | 0.1 to 100 |  |
| Cc1nn(C)cc1Nc1ncc(Cl)c(-n2cc(C)c3cc(NC(=O)/C=C/CN(C)C)cnc32)n1 [Example 180, (E)-N-[1-[5-chloro-2-[(1,3-dimethylpyrazol-4-yl)amino]pyrimidin-4-yl]-3-methyl-pyrrolo[2,3-b]pyridin-5-yl]-4-(dimethylamino)but-2-enamide] | 100 to 250 | 0.1 to 100 | 0.1 to 100 | 0.1 to 100 | 0.1 to 100 |  |
| C=CC(=O)Nc1ccc2c(c1)c(C)cn2-c1nc(Nc2cn(CC(C)(C)O)nc2C)ncc1F [Example 182, N-[1-[5-fluoro-2-[[1-(2-hydroxy-2-methyl-propyl)-3-methyl-pyrazol-4-yl]amino]pyrimidin-4-yl]-3-methyl-indol-5-yl]prop-2-enamide] | 0.1 to 100 | 0.1 to 100 | 0.1 to 100 | 0.1 to 100 | 0.1 to 100 |  |
| C=CC(=O)Nc1ccc2c(c1)c(C)cn2-c1nc(Nc2cnn(CC(C)(C)O)c2C)ncc1F [Example 183, N-[1-[5-fluoro-2-[[1-(2-hydroxy-2-methyl-propyl)-5-methyl-pyrazol-4-yl]amino]pyrimidin-4-yl]-3-methyl-indol-5-yl]prop-2-enamide] | 0.1 to 100 | 0.1 to 100 | 0.1 to 100 | 0.1 to 100 | 0.1 to 100 |  |
| C=CC(=O)Nc1ccc2c(-c3ccnc(Nc4cnn(C(F)(F)F)c4)n3)cn(C)c2c1 [Example 184, N-[1-methyl-3-[2-[[1-(trifluoromethyl)pyrazol-4-yl]amino]pyrimidin-4-yl]indol-6-yl]prop-2-enamide] | 250 to 1000 | 0.1 to 100 | 0.1 to 100 | 0.1 to 100 | 0.1 to 100 | 0.1 to 100 |
| C=CC(=O)Nc1ccc2c(-c3ccnc(Nc4cnn(C)c4)n3)cn(C)c2c1 [Example 201, N-[3-[2-[(1-methylpyrazol-4-yl)amino]pyrimidin-4-yl]-1-methyl-indol-6-yl]prop-2-enamide] | 0.1 to 100 | 0.1 to 100 | 0.1 to 100 | 0.1 to 100 | 0.1 to 100 |  |
| C=CC(=O)Nc1ccc2c(c1)c(C)cn2-c1nc(Nc2cnn3c2CCC3)ncc1F [Example 207, N-[1-[2-(5,6-dihydro-4H-pyrrolo[1,2-b]pyrazol-3-ylamino)-5-fluoro-pyrimidin-4-yl]-3-methyl-indol-5-yl]prop-2-enamide] | 0.1 to 100 |  | 0.1 to 100 | 0.1 to 100 | 0.1 to 100 | 0.1 to 100 |
| C=CC(=O)Nc1ccc2c(c1)c(C)cn2-c1nc(Nc2cnn(C3CCOCC3)c2)ncc1F [Example 208, N-[1-[5-fluoro-2-[(1-tetrahydropyran-4-ylpyrazol-4-yl)amino]pyrimidin-4-yl]-3-methyl-indol-5-yl]prop-2-enamide] | 0.1 to 100 | 0.1 to 100 | 0.1 to 100 | 0.1 to 100 | 0.1 to 100 |  |
| C=CC(=O)Nc1ccc2c(c1)c(C)cn2-c1nc(Nc2cn(C[C@@H](C)O)nc2C)ncc1F [Example 214, N-[1-[5-fluoro-2-[[1-[(2R)-2-hydroxypropyl]-3-methyl-pyrazol-4-yl]amino]pyrimidin-4-yl]-3-methyl-indol-5-yl]prop-2-enamide] | 0.1 to 100 | 0.1 to 100 | 0.1 to 100 | 0.1 to 100 | 0.1 to 100 |  |
| C=CC(=O)Nc1ccc2c(c1)c(C)cn2-c1nc(Nc2cnn(C3CCOC3)c2)ncc1F (centres unmarked) [Example 215, N-[1-[5-fluoro-2-[(1-tetrahydrofuran-3-ylpyrazol-4-yl)amino]pyrimidin-4-yl]-3-methyl-indol-5-yl]prop-2-enamide] | 0.1 to 100 | 0.1 to 100 | 0.1 to 100 | 0.1 to 100 | 0.1 to 100 |  |
